Reference: US20230391775A1, “SUBSTITUTED DIARYLAMINE COMPOUND, PHARMACEUTICAL COMPOSITION THEREOF, PREPARATION METHOD THEREFOR, AND USE THEREOF” (SUZHOU YABAO PHARMACEUTICAL R&D CO., LTD., priority 2020, published 2023)

Assays:
[1] = molecular target: LRRK2 G2019S (Homo sapiens (Human), UniProt Q5S007, G2019S); experiment: Adapta kinase assay (LRRK2_IC50 assay); format: biochemical; conditions: Adapta TR-FRET, 1 h, room temperature
Description: In the Adapta™ kinase assay method (LRRK2_IC50 assay): the kinase reaction buffer contained kinase buffer S (Life Technologies, PV5213) and 2 mM DTT (Life Technologies, P2325). The kinases LRRK2 G2019S protein (PV4881) and ERM (LRRKtide, PV5093) were derived from Life Technologies. The Adapta™ universal kinase assay kit (Life Technologies, PV5099) contained the following components: Adapta™ Eu-anti-ADP antibody (PV5097; 4 μg); 10 μM AlexaFluor®647 ADP tracer (PV5098; 200 pmol); TR-FRET dilution buffer (PV3574; 100 mL); kinase quench buffer (P2825; 1 mL); 10 mM ATP (PV3227; 500 μL); and 10 mM ADP (PV5096; 500 μL). LRRK2-IN-1 (1234480-84-2, HY-10875) was derived from MedChem Express.
Adapta™ Kinase Assay Method
Adapta® universal kinase assay method is a uniform fluorescence-based immunoassay for detecting ADP. In contrast to ATP consumption assay, Adapta® assay method was very sensitive to ADP formation, with most signal changes occurring when initially 10-20% ATP was converted to ADP. This made Adapta® universal kinase assay method very suitable for low-activity kinases.
All assays were performed at room temperature (about 21° C.) and were linearly related to time and enzyme concentration under the conditions used. 1× kinase reaction buffer was prepared from 5× kinase buffer S stock solution (listed above), and 10 mL of 1× kinase reaction buffer was prepared by the addition of 2 mL of 5× stock solution to 8 mL of H2O. To the 1× kinase reaction buffer was added 20 μL of 1 M DTT.
A kinase reaction was performed in a low-volume 384-well plate in a volume of 10 μL. Typically, a Greiner plate was used (Catalog #3674 #, low volume, white wall, 784075). Other untreated assay plates that were not tested could also be suitable. The substrate concentration in the assay was 100 μM, and the 1× kinase reaction buffer consisted of 50 mM Tris-HCl (pH 8.5), 10 mM MgCl2, 1 mM EGTA, 0.01% Brij-35 and 2 mM DTT, as well as any other additives that could be necessary for the particular kinase. The kinase reaction was allowed to proceed for 1 h at room temperature, followed by the addition of a formulation of kinase quenching buffer (EDTA; 30 mM), Eu-labeled antibody (6 nM), and tracer (18.9 nM) in TR-FRET dilution buffer (5 μL). The final concentration of the antibody in the assay wells was 2 nM, the final concentration of the tracer was 6.3 nM, and the final concentration of EDTA was 10 mM. The plate was allowed to equilibrate at room temperature for at least 30 min and then read on a plate reader configured for Adapta™ TR-FRET.
The data provided in this document were generated by using BMG LABTECH PHERAstar plate reader and using appropriate filters and instrument settings for Adapta™. Test compounds were screened in wells with 1% DMSO (final). For 8-point titration, a 5-fold serial dilution was made on the basis of a starting concentration.

[2] = Drug tissue distribution assay: plasma pharmacokinetics; format: in vivo; conditions: mice, single oral intragastric 30 mg/kg
Description: (§1) Test sample: compound 4, purity 99%
(§2) Preparation of test sample: 22.73 mg of compound 4 was weighed and placed in a mortar (according to the purity of 99%), and a small amount of 0.5% CMC-Na was added followed by full grinding. The mixture was then transferred to a container; the mortar was washed for 4 times; the washing solution was transferred to the container, followed by the addition of 0.5% CMC-Na until the volume of the reaction solution was 30 mL; and then a test sample suspension with a concentration of […] was prepared. The suspension was stirred with a magnetic stirrer at a rotation speed of 1200 rpm for at least 15 min prior to sampling for analysis and administration, with fresh preparation just prior to use.
(§3) Route of administration: oral intragastric administration
(§4) Frequency and dose of administration: single administration at 30 mg/kg (40 mL/kg)
(§5) After drug administration, 0.4 mL of blood was collected from the heart of each group of animals at corresponding time points of 0.25 h, 0.5 h, 1 h, 2 h, 4 h, 6 h, 8 h, and 24 h, respectively, the animals were anesthetized by intraperitoneal injection of 50 mg/kg Zoletil, and then put to death by bleeding. The brain, lung, and kidney of each animal were taken out, washed with normal saline, dried off with filter paper, and put into a cryopreservation tube. The cryopreservation tube was temporarily placed in dry ice, and stored at −60° C. or below for 12 h.
(§6) The collected blood was anticoagulated with EDTA-K2, then temporarily placed in wet ice, and then centrifuged for 10 min at 4° C. and at 2600 g within 2 h. The plasma was temporarily placed in dry ice, and stored in a refrigerator at −60° C. or below within 14 h.
(§7) Analytical method: The drug concentrations in plasma and brain tissue were measured by the following LC-MS/MS method. • Instrument: Shimadzu LC-MS/MS (Model: LCMS-8060); • Chromatographic column: GL Sciences Inc., InertSustain, C18, 3 μm, 2.1×50 mm; • Ion detection: positive ion mode, m/z 453.10/338.05; • Mobile phase A: aqueous solution containing 0.1% TFA; mobile phase B: methanol solution containing 0.1% TFA;
(§8) Pharmacokinetic parameter evaluation index: pharmacokinetic parameters were calculated in a non-compartmental model using WinNonlin 6.4.

[3] = Drug tissue distribution assay: brain tissue pharmacokinetics / blood-brain barrier permeability; format: in vivo; conditions: mice, single oral intragastric 30 mg/kg
Description: as §1, §2, §3, §4, §5, §6, §7, §8

LRRK2 G2019S, sequence (Q5S007 whole entry G2019S): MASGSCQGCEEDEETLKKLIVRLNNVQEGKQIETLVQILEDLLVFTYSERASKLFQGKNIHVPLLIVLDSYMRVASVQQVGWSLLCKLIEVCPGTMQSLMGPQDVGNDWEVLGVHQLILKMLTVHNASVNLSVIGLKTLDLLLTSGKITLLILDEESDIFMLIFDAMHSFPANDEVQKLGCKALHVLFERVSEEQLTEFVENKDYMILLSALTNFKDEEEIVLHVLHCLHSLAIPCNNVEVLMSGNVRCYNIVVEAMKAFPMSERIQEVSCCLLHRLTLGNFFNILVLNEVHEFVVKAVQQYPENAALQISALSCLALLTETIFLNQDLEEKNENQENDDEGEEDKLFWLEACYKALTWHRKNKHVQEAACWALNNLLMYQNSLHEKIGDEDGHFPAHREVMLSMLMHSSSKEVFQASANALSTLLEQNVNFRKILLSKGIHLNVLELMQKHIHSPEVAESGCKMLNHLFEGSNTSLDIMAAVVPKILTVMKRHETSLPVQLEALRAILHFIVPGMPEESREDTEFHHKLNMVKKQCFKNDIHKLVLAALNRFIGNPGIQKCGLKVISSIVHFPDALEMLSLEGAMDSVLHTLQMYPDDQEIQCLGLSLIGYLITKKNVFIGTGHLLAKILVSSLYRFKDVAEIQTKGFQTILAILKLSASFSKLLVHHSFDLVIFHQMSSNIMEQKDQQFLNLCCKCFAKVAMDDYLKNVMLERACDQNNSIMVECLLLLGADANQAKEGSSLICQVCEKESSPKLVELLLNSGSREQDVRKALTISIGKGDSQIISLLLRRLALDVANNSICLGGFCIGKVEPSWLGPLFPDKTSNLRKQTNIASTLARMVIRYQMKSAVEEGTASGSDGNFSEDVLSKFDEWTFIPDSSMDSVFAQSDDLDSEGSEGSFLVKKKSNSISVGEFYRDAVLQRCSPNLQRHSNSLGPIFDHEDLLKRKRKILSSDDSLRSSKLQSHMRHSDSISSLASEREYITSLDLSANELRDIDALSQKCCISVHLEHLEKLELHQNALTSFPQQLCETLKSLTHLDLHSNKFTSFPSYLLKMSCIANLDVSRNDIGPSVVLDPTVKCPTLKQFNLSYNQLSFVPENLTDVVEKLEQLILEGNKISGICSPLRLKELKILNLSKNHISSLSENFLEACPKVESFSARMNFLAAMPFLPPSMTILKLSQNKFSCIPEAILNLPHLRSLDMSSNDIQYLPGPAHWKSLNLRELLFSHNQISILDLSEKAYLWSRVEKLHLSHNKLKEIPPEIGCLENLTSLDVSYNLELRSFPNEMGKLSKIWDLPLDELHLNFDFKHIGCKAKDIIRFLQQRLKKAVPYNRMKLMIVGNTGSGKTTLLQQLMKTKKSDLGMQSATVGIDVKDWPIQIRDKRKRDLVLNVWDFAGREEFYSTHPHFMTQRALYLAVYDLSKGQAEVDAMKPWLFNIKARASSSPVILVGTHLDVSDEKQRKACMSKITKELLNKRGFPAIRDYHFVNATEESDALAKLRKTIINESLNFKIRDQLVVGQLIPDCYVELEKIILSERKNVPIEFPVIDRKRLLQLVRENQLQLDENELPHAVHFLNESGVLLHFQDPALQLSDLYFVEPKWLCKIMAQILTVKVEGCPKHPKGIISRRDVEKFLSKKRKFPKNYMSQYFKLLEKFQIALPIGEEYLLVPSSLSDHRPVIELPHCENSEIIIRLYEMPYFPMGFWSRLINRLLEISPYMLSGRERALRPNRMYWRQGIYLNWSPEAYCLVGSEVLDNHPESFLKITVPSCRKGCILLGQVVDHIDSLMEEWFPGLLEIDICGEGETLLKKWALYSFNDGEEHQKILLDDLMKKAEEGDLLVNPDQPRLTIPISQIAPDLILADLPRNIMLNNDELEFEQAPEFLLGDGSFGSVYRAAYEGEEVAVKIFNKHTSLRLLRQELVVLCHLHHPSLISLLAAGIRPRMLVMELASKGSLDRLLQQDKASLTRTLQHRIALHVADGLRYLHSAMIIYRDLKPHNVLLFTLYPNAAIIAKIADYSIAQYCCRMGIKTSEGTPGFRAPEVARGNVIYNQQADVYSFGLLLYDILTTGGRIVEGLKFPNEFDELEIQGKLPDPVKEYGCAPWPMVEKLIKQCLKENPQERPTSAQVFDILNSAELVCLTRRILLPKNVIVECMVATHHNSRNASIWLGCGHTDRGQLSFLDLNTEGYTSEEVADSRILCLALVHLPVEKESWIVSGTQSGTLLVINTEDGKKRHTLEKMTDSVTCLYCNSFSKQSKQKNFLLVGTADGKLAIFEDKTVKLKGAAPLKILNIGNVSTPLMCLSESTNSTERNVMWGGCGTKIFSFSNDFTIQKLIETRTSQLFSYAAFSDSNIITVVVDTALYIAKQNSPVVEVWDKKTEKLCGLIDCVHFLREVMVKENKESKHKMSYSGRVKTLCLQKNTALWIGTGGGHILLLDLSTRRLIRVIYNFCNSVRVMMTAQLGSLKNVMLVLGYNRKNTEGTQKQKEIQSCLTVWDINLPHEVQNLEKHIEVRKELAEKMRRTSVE

CCOc1nc(Nc2ccc(C(N3CCOCC3)C(F)(F)F)cc2OC)nc2[nH]ccc12 (single isomer, unassigned) [Compound 4, 4-ethoxy-N-(2-methoxy-4-(2,2,2-trifluoro-1-morpholinoethyl)phenyl)-7H-pyrrolo[2,3-d]pyrimidin-2-amine]
IC50 [1]: 17 nM | AUC0-t [2]: 3248 ng · h · mL^−l | AUC0-∞ [2]: 3257 ng · h · mL^−l | Cmax [2]: 597 ng · mL^−l | Kel [2]: 0.247 h^−l | CL/F ([2]; mouse): 154 mL/min/kg | Tmax ([2]; mouse): 1 h | half-life ([2]; mouse): 2.8 h | MRT last ([2]; mouse, read-out: MRT0-t): 4.5 h | MRT inf ([2]; mouse, read-out: MRT0-∞): 4.56 h | Vd/F ([2]; mouse, read-out: Vz/F): 37.3 L/kg | AUC0-t ([3]; brain tissue): 6457 ng · h · g^−l | AUC0-∞ ([3]; brain tissue): 7409 ng · h · g^−l | Cmax ([3]; brain tissue): 1898 ng · g^−l | blood-brain barrier permeability ([3]; result in words): excellent blood-brain barrier permeability | Kp ([3]; mouse, brain / plasma, read-out: AUCbrain/AUCplasma): ~2 | Tmax ([3]; mouse, brain tissue): 1 h
